The source of these data is patent US20250082781A1, “METHODS OF LOWERING BLOOD GLUCOSE AND TREATING TYPE 2 DIABETES BY ACTIVATION OF PDE4D3” (Salk Institute for Biological Studies, priority 2021, published 2025).

Experiment [1] deals with human SVF-derived adipocytes. Description: In vitro lipolysis assay (FFA release), human SVF-derived adipocytes. The class given is cell-based. As for the experimental part: Differentiation of pre-adipocytes were based on previously published methods (Bunnell et al., 2008). Briefly, 3T3-L1 pre-adipocytes were grown to full confluence in DMEM, 10% FBS (GemCell, 100-500), 10 mM HEPES and antibiotic-antimycotic (full growth media). 2 days later, differentiation was induced by replacing the media with 1 μM dexamethasone, 1 μM rosiglitazone, 500 μM IBMX and 5 μg/ml insulin in full growth media 2 days later after reaching full confluence. Two days later media was replaced by differentiation induction media with 1 μM rosiglitazone and 5 μg/ml insulin for 4 days with media change after 2 days. Cells were kept in maintenance medium (full growth media with 5 μg/ml insulin) for 4 more days for full differentiation. For differentiation of mouse SVF derived adipocytes, the protocol was same except DMEM/F12 (10565018, ThermoFisher) was used as base media and initial differentiation induction media was kept for 3 days. For differentiation of human subcutaneous adipocytes, protocol and media from the manufacturer (C-12735, C-39437, Promocell) were used. […]
For in vitro lipolysis assay, cells were washed with PBS and media were changed to full growth media 1 day before experiment. […] FFAs were measured in the media using a commercial kit (Wako-NEFAHR2) and normalized to protein concentration. […] FFAs were measured and normalized by the explant weights.

In experiment [2] the test system is HSL phosphorylation at S660. The experiment can be described thus: Western blot of pHSL-S660 in gWAT after injection. The class given is in vivo, mouse. The conditions noted are these: 30 min after FGF1 injection 0.5 mg/kg. As for the experimental part:
(§1) Tissues were lysed in cold lysis buffer (50 mM Tris, pH 7.5, 150 mM NaCl, 1% NP40, 0.5% NaDoc, 0.1% SDS, 5% glycerol, 1 mM EDTA, protease and phosphatase inhibitors (complete and PhosSTOP (Roche)) by homogenization by bead-beater for 30 s. Samples were cleared for 10 min at 18,000 g at 4° C. and the middle clear phase was transferred to new tubes. A second 30 min centrifugation was performed and the middle clear phase was transferred to new tubes. Five ul protein extract was used for BCA assay to determine protein concentration. Samples were boiled in Laemmli buffer. SDS-PAGE and blotting were performed using gradient gels and Trans-Blot Turbo Transfer System (Bio-Rad). Antibodies used were PDE4D (12918-1-AP, Proteintech), pHSL-660 (4126S, Cell signaling), HSL (4107S, Cell Signaling), tubulin (CP06, Millipore Sigma), and GFP (A01388, GenScript). PDE4D3-pS44 phospho-specific antibody was generated using PDE4D3-S44 FRRHpSWISFDVDNGTSAGR peptide (SEQ ID NO: 20) (Mackenzie et al., 2002) by Pocono Rabbit Farm, using 70-day rabbit antibody production protocol and purified via affinity purification. Primary antibodies were incubated for 2 h at room temperature (RT) or overnight (ON) at 4° C. Blots were developed using SuperSignal West Pico PLUS Chemiluminescent Substrate (ThermoFisher Scientific) and imaged with BioRad GelDoc system.

Experiment [3] deals with endogenous glucose production. Description: Hyperinsulinemic clamp in ob/ob mice. The class given is in vivo, mouse. The following applies: FGF1 0.5 mg/kg every other day for a week. As for the experimental part:
Before the test, mice were equipped with a permanent catheter in the right atrium via the jugular vein and were allowed to recover over a period of at least 3 days. After the recovery period, the mice were placed in experimental cages. All infusion experiments were performed in conscious, unrestrained mice as described previously (van Dijk et al., 2003). During the experiment, blood glucose levels were determined every 15 minutes using a Lifescan EuroFlash glucose meter. For GC-MS analysis of [U-^13C] glucose, bloodspots on filter paper were collected from the tail vein every 30 minutes.
Ob/ob mice were treated for 1 week with rFGF1 (0.5 mg kg^−1 every other day for one week). Steady state glucose fluxes were determined for basal and hyperinsulinemic-euglycemic clamp conditions. During the first period, mice were infused with a solution containing a tracer of [U-13C] glucose (2.5 mg/ml Cambridge Isotope Laboratories, Andover, MA) at an infusion rate of 0.54 ml/h. With respect to the final period, blood glucose levels were clamped at 20 mM. For this, the mice were infused at a constant rate of 0.135 ml/h with a mixture of insulin (44 mU/ml, Actrapid, Novo Nordisk, Bagsvaerd, Denmark), somatostatin (20 μg/ml, UCB Breda, the Netherlands), 1% BSA, and glucose (200 mg/ml from which 3% [U-^13C] glucose). Additionally, a second (variable) infusion was used containing glucose (200 mg/ml from which 3% [U-^13C] glucose) to adjust blood glucose levels.

A further experiment relates to PDE4D. The experiment can be described thus: Western blot of PDE4D phosphorylation in 3T3-L1 adipocytes. Format: cell-based. Here is the method: as §1
Background: In western blotting, separated proteins are transferred to a membrane and probed.

As for “FGF1: Recombinant fibroblast growth factor 1 protein, dissolved in PBS, injected subcutaneously”, the “anti-lipolytic activity of FGF1 with selective inhibitors of PDE4” value in experiment [1] (FGF1 100 ng/ml with roflumilast 2 μM) is listed as “blocked by selective inhibitors of PDE4”. Further, the “basal and isoproterenol-induced lipolysis” value in experiment [1] (FGF1 100 ng/ml, 10 min before ISO 1 nM) was “acutely suppressed basal and isoproterenol-induced lipolysis”. The “pHSL levels in gWAT” value in experiment [2] is given as “decreased”. The “reduction in basal endogenous glucose production (EGP)” value in experiment [3] is around 25%. Besides, in experiment [3] (clamp conditions), the “exogenous glucose infusion rate (GIR)” value is “higher” and the “glucose disposal rate (GDR)” value is “not altered”. In the experiment with PDE4D (3T3-L1 adipocytes infected with adAAV PDE4D3 S44A), the “FGF1-induced phosphorylation of PDE4D3 in the S44A mutant” value is listed as “lost”. Also, the “S44 phosphorylation of PDE4D3” value in the experiment with PDE4D (3T3-L1 cells overexpressing PDE4D3, absence and presence of isoproterenol) is reported as “increased S44 phosphorylation”. Besides, the PDE4D phosphorylation entry in the experiment with PDE4D (isoproterenol-stimulated, FGF1 co-treatment 100 ng/ml) was “increased both the extent and duration of PDE4D phosphorylation”.
